The results in this text go back to ChEMBL document CHEMBL1201862, “PubChem BioAssay data set” (2004).

Broadly, the IC50 is the concentration that inhibits the measured activity by half. By AC50 is commonly meant the concentration at which the activity in the assay is half-maximal.

Assay [1] in a line: luciferase reporter signal suppression in cells – H4 neuroglioma cells, luminescence, dose response (AID 1990). The assay is classed as functional, cell-based. A general note: Reporter assays use an easily measured gene product as a stand-in for the process of interest.
The target in assay [2] is Luciferin 4-monooxygenase (Photinus pyralis, UniProt P08659). The assay is described as follows: Counter Screen for Luciferase-based Assay Positives. [Related pubchem assays: 620, 618, 411 ].
Luciferin 4-monooxygenase, sequence (P08659 whole entry): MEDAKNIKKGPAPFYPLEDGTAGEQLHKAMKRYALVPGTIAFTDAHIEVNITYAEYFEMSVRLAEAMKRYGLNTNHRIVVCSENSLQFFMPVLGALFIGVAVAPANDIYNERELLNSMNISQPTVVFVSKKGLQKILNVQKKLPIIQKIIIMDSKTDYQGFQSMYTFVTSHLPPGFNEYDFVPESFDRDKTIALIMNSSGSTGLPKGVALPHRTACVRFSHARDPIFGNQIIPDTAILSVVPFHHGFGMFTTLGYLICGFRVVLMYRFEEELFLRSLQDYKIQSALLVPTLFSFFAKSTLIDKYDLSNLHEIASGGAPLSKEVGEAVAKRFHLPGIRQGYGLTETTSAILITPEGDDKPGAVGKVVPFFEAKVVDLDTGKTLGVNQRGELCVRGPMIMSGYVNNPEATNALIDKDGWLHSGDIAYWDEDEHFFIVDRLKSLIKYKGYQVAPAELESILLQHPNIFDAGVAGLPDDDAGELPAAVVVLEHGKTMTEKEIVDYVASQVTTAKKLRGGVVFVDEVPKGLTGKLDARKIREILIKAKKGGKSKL
Assay [3] is described as follows: Luminescence Cell-Based Dose Response HTS to Identify Inhibitors of 5'UTR Stem-Loop Driven Prion Protein mRNA Translation in H4 Neuroglioblastoma Cells. [Related pubchem assays: 1827 (Project Summary), 1813 (Primary HTS)]. The assay is classed as functional.
Assay [4] can be described thus: alpha-synuclein stem-loop luciferase translation blockers – H4 neuroglioma cells, luminescence, confirmation (AID 1988). The assay is classed as functional, cell-based.
The nature of assay [5]: HPDE-C7 pancreatic duct cell viability loss – fluorescence, HTS (AID 430). The assay is classed as functional, cell-based. The conditions noted are these: Homo sapiens.
The nature of assay [6]: microbe, parasite or virus in culture. The assay is classed as functional. The conditions noted are these: Mycobacterium tuberculosis.
A short description of assay [7]: viability loss of HPDE-C7K cells – cell-based, fluorescence, HTS, primary screen (AID 431). The conditions noted are these: Homo sapiens. The assay is classed as functional.
Assay [8] is described as follows: viability of PTEN-deleted HCT116 cells – cell-based, HCT116 PTEN knockout, dose response (AID 1047).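 Note: HCT116 colon tumor cells with PTEN knocked out; cells exposed to compound for 60 hours before readout; potency for loss of cell viability measured by luminescence.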 The assay is classed as functional.
Another assay deals with HT-1080. The assay is described as follows: HT1080 cell viability loss – fluorescence readout (AID 620). The assay is classed as functional, cell-based. The conditions noted are these: Homo sapiens.
Assay [9] can be described thus: viability of HCT116 lacking mutant beta-catenin – cell-based, human colon tumor, dose response (AID 1045).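 Note: HCT116 colon tumor cells with beta catenin knocked out; cells exposed to compound for 60 hours.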 The assay is classed as functional.
Assay [10] is described as follows: HEK-293T cell viability reduction – luminescence, B-cell screen hits, cytotoxicity control for BCR NF-kB inhibitor project, dose response (AID 489021).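 Note: HEK-293T cells carrying an NF-kB luciferase reporter; cells exposed to compound for about 14 hours before viability readout.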 The assay is classed as functional, cell-based.
The subject of a further assay is Vero. The assay is described as follows: viability of Vero cells under compound – cytotoxicity control for flavivirus capping enzyme inhibitors (AID 588742). The assay is classed as functional. The conditions noted are these: Chlorocebus sabaeus.
Assay [11] addresses Peroxisome proliferator-activated receptor gamma/Nuclear receptor coactivator 2 (Homo sapiens, UniProt P37231). The assay is classed as functional.
Assay [12] has as its target Peroxisome proliferator-activated receptor gamma/Nuclear receptor coactivator 1 (Homo sapiens, UniProt P37231). The assay is classed as functional.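 Note: agonist potency as compounds enhance coactivator SRC-1 recruitment to PPARgamma.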
Assay [13] has as its target Peroxisome proliferator-activated receptor gamma/Nuclear receptor coactivator 3 (Homo sapiens, UniProt P37231). The assay is classed as functional.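 Note: agonist potency for raising coactivator recruitment to the receptor.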
A further assay has as its target T1, ORF 73 (Human herpesvirus 8, UniProt O40947).
T1 sequence (O40947 whole entry): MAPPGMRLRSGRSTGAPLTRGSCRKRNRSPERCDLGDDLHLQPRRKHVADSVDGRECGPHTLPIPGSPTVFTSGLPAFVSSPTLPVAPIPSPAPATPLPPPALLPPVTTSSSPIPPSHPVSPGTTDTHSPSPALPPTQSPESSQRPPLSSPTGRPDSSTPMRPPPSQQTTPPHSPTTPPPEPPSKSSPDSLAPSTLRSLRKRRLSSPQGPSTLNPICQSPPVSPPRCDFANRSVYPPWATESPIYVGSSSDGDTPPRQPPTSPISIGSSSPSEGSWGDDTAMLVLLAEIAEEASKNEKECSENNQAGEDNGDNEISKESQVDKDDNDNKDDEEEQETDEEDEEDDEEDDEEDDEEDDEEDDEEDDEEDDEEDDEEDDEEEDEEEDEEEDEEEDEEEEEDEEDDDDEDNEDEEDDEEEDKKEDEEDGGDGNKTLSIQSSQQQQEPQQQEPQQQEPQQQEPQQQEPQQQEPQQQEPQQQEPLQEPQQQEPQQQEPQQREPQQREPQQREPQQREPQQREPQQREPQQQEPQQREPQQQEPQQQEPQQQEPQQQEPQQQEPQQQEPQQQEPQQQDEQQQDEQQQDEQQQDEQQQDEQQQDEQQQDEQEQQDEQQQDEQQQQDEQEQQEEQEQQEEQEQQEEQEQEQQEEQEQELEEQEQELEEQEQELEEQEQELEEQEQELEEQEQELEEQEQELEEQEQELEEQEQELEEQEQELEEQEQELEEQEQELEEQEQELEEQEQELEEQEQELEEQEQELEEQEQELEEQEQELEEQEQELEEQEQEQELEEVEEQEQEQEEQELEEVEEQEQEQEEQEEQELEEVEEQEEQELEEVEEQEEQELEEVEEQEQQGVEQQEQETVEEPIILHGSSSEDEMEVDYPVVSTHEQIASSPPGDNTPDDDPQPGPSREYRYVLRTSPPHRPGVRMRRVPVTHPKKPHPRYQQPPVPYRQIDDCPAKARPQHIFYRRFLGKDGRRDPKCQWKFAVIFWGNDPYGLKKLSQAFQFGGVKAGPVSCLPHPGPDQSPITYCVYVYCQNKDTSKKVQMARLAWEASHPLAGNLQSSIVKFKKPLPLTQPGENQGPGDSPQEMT
The assay is described as follows: KSHV LANA DNA-binding disruption – biochemical, fluorescence polarization, cherry-picked samples, dose response (AID 504725).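 Note: fluorescence polarization of a labeled DNA duplex reporting LANA DNA binding; potency is for inhibitors that block LANA binding to the DNA.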 Also on record: species or system Human gammaherpesvirus 8. (In general: Fluorescence polarisation rises when a labelled molecule tumbles more slowly, as on binding a larger partner.)

For assay [14], the target named is T2, Endoribonuclease toxin MazF (Escherichia coli K-12, UniProt P0AE70).
T2 sequence (P0AE70 whole entry): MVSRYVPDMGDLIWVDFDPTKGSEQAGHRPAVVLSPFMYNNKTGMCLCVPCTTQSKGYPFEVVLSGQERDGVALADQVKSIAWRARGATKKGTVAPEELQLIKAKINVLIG
The assay is described as follows: activation of MazEF endoribonuclease cleavage – biochemical, fluorescence, single-stranded RNA substrate, uHTS hits, dose response (AID 588481). The assay is classed as functional.

For assay [15], the target named is T2, Endoribonuclease toxin MazF. The assay is described as follows: substrate-only fluorescence increase artefacts – biochemical, single-stranded RNase substrate, counter-screen for MazEF activator project, dose response (AID 588502). The assay is classed as functional.
Assay [16] addresses T3, Corticotropin-releasing factor receptor 2/Corticotropin-releasing factor-binding protein (Homo sapiens, UniProt P24387+Q13324).
T3 sequence (Q13324 whole entry): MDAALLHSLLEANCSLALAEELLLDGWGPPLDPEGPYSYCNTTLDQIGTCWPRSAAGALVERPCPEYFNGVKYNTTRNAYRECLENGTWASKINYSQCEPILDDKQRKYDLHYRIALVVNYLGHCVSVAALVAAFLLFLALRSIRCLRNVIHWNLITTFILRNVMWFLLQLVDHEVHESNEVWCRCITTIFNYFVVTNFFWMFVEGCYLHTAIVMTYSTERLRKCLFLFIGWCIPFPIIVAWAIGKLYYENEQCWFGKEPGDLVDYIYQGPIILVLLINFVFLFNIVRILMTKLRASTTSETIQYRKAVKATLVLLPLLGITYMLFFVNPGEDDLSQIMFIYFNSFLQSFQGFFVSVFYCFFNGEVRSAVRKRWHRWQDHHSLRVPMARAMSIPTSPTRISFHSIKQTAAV
T3 sequence (P24387 whole entry): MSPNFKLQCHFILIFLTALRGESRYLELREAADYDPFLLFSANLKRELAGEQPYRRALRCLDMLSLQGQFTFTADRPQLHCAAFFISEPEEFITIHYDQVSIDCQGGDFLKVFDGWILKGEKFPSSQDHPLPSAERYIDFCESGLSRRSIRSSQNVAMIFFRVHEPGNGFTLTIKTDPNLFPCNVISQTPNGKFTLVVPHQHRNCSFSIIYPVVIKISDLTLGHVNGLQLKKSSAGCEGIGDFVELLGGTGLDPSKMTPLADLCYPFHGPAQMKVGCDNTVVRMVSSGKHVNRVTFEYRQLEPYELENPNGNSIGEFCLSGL
The assay is described as follows: activators of CRF receptor 2 with binding protein – uHTS hits, confirmation (AID 602473). The assay is classed as functional. The conditions noted are these: read-out: EC50_Mean.

In the next assay the test system is HeLa. The assay is described as follows: viability loss in HeLa cells – cell-based, 24 h, cherry-picked samples, cytotoxicity control, dose response (AID 504726).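 Note: potency for cytotoxicity as loss of luminescence signal.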 The assay is classed as functional. The conditions noted are these: Homo sapiens.
In another assay the target is Cytochrome P450 3A4 (Homo sapiens, UniProt P08684). The conditions noted are these: Potency.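 Note: confirmatory qHTS run detecting inhibitors and substrates of CYP3A4.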
Cytochrome P450 3A4, sequence (P08684 whole entry): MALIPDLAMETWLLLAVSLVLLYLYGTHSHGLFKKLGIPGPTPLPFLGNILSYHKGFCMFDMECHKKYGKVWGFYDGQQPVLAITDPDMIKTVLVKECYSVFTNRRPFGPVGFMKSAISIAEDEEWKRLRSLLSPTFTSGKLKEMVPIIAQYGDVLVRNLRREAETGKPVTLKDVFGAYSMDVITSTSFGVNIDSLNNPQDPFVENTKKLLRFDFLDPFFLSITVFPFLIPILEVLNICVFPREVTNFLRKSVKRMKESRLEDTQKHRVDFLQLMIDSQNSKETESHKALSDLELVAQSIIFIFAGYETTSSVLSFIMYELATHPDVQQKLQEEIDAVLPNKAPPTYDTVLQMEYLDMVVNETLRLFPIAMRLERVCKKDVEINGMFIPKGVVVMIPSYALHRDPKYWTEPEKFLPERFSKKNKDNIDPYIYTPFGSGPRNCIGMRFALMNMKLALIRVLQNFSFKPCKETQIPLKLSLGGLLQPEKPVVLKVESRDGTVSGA

Calls of active or inactive are those of the source.

Peroxisome proliferator-activated receptor gamma/Nuclear receptor coactivator 2, sequence (P37231 whole entry): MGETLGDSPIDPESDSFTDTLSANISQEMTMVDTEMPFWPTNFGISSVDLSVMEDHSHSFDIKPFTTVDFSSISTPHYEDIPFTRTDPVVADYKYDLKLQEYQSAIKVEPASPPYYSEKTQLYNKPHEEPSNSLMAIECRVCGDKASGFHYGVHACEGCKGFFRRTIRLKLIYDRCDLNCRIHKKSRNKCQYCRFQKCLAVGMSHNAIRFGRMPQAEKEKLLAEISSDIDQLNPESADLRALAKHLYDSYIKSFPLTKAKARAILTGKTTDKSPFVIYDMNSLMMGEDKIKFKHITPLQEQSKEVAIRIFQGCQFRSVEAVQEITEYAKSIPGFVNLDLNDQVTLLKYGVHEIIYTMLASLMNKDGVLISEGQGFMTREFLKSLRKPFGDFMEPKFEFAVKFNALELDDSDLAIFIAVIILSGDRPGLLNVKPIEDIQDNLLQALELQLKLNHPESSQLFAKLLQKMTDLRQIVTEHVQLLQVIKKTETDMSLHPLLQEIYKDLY
Peroxisome proliferator-activated receptor gamma/Nuclear receptor coactivator 2, sequence (Q15596 whole entry, further chain): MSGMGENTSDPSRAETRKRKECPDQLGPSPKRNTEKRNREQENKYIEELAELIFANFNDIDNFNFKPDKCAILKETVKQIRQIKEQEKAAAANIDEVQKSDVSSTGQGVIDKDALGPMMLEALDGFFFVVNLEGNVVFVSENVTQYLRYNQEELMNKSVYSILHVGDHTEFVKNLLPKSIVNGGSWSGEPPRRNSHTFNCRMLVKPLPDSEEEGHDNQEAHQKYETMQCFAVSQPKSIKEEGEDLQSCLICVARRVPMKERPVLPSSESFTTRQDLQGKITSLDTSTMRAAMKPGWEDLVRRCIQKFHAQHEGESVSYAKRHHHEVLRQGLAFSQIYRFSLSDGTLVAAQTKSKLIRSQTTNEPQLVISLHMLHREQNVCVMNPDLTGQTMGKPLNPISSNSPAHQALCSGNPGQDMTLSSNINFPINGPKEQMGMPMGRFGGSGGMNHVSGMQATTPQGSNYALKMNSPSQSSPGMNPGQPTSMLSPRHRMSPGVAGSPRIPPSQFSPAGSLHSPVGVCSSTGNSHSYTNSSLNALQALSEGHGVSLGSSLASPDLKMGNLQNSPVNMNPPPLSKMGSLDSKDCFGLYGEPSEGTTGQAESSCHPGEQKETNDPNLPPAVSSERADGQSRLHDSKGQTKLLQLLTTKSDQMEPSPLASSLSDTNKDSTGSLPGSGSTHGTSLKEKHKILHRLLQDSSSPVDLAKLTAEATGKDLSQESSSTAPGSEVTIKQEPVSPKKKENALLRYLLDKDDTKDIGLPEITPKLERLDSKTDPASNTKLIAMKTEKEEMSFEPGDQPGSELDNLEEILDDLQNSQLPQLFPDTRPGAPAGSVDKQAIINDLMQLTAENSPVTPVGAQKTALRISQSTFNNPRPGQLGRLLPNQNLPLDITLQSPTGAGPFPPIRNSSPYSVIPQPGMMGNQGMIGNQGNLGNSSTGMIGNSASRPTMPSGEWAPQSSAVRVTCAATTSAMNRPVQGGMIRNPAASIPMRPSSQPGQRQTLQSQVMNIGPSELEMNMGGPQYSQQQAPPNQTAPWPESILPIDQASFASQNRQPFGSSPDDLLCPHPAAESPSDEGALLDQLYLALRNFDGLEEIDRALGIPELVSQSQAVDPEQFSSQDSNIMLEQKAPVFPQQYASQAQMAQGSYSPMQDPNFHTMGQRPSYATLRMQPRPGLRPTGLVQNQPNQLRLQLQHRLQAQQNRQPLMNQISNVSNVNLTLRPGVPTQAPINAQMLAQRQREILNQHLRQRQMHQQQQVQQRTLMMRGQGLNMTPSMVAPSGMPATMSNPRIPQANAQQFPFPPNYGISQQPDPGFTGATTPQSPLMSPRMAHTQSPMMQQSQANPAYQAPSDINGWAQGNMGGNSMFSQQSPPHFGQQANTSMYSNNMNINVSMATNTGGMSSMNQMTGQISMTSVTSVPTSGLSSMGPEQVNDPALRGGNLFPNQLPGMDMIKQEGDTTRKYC
Peroxisome proliferator-activated receptor gamma/Nuclear receptor coactivator 1, sequence (P37231 whole entry): as the sequence (P37231 whole entry) above
Peroxisome proliferator-activated receptor gamma/Nuclear receptor coactivator 1, sequence (Q15788 whole entry, further chain): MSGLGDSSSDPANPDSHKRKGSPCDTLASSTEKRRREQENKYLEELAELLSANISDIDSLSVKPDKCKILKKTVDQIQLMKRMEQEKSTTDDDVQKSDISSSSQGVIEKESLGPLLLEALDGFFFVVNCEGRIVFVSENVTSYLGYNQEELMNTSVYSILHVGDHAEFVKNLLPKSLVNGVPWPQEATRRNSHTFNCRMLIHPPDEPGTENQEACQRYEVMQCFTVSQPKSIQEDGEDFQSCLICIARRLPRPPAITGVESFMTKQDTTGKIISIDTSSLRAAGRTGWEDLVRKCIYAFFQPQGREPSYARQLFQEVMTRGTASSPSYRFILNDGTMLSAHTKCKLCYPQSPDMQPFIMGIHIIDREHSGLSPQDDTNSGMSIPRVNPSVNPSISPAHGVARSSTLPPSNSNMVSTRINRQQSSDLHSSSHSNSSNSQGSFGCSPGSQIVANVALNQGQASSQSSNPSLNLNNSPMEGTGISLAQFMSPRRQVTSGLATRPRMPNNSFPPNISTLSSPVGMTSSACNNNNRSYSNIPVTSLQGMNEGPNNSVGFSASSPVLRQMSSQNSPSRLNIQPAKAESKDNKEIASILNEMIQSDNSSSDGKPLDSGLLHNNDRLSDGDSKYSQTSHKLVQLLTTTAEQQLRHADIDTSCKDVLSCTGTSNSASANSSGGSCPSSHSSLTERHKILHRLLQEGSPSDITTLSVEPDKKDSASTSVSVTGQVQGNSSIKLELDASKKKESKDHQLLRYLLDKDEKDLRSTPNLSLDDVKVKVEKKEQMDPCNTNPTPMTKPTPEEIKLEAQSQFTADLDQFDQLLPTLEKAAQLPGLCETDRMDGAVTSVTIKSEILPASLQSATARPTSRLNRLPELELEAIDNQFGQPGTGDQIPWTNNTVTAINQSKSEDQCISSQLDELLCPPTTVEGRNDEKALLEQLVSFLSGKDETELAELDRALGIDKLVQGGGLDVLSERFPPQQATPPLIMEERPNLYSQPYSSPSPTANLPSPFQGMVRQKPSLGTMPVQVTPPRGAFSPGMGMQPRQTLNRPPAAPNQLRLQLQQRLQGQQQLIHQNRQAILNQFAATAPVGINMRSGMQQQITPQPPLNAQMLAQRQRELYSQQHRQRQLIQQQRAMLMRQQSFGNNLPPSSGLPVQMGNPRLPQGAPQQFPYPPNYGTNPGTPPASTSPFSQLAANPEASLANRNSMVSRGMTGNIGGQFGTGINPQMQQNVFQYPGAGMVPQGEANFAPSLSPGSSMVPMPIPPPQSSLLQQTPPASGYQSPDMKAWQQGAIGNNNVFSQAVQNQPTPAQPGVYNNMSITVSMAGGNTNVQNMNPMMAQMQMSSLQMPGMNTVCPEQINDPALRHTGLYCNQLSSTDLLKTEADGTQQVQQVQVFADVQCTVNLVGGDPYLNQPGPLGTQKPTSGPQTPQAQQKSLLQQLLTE

Turning to `CC1CC(C)(C)Nc2ccc(OC(=O)c3ccco3)cc21` (configuration not stated), the EC50 in assay [1] is 8.25 µM (active); in assay [2], < 0.2 µM (active); in [3] it was 14.8 µM (active); in assay [4] it was 20.1 µM (active); in assay [5], 10.1 µM (active); in assay [7] it was 9.77 µM (active). The figures for the EC50 (in [8]; with HT-1080; in assay [9]) were 8.58 µM (active), > 50 µM (not active) and 8.18 µM (active), respectively. For the same compound, the results for the CC50 (in [6]; in the assay on Vero) were 30 µM (active) and > 40 µM (active), respectively. Further, in [10], the IC50 was 50.9 µM (inactive).

As for `Clc1ccc(-c2nnc3sc(-c4ccc(Br)o4)nn23)cc1`, the EC50 in [11] was 39.7 µM (not active); in assay [12] it was > 79.4 µM (not active); in [13] it was > 79.4 µM (not active); in assay [14], > 99 µM (inactive); in [15] it was > 99 µM (inactive); in [16] it was > 53 µM (inactive). In addition, the half-maximal activity concentration (AC50) on ORF 73 was 27.1 µM (active).

In the case of `CN(C)S(=O)(=O)c1cccc(N2C(=O)CC3(CCCCC3)CC2=O)c1`, the figures for the AC50 in the assay on HeLa and on ORF 73 were > 350 µM (inactive) and 76.9 µM (active), respectively.

`C[C@@H]1CCC2[C@](C)(CO)C(O)CC[C@@]2(C)[C@@]12CC[C@](CO)(CCO)O2` (some centres not stated): at Cytochrome P450 3A4, the half-maximal activity concentration (AC50) was 25.1 µM (inconclusive).
